These compounds were tested against human neprilysin (EC 3.4.24.11; NEP) (Homo sapiens (Human), UniProt P08473) (assay: In vitro enzyme inhibition assay at human NEP (fluorogenic peptide substrate)). Settings: pKi values at human NEP, recombinant human NEP.
Type: biochemical
Experimental: In Vitro Assays for the Quantitation of Inhibitor Potencies at Human and Rat NEP, and Human ACE
The inhibitory activities of compounds at human and rat neprilysin (EC 3.4.24.11; NEP) and human angiotensin converting enzyme (ACE) were determined using in vitro assays as described below.
Recombinant human NEP and recombinant human ACE were obtained commercially (R&D Systems, Minneapolis, Minn., catalog numbers 1182-ZN and 929-ZN, respectively). The fluorogenic peptide substrate Mca-D-Arg-Arg-Leu-Dap-(Dnp)-OH (Medeiros et al. (1997) Braz. J. Med. Biol. Res. 30:1157-62; Anaspec, San Jose, Calif.) and Abz-Phe-Arg-Lys(Dnp)-Pro-OH (Araujo et al. (2000) Biochemistry 39:8519-8525; Bachem, Torrance, Calif.) were used in the NEP and ACE assays respectively.
The assays were performed in 384-well white opaque plates at 37° C. using the fluorogenic peptide substrates at a concentration of 10 μM in Assay Buffer (NEP: 50 mM HEPES, pH 7.5, 100 mM NaCl, 0.01% polyethylene glycol sorbitan monolaurate (Tween-20), 10 μM ZnSO4; ACE: 50 mM HEPES, pH 7.5, 100 mM NaCl, 0.01% Tween-20, 1 μM ZnSO4).
Test compounds were assayed over the range of concentrations from 10 μM to pM. Test compounds were added to the enzymes and incubated for 30 minute at 37° C. prior to initiating the reaction by the addition of substrate. Reactions were terminated after 20 minutes of incubation at 37° C. by the addition of glacial acetic acid to a final concentration of 3.6% (v/v).
Plates were read on a fluorometer with excitation and emission wavelengths set to 320 nm and 405 nm, respectively. Inhibition constants were obtained by nonlinear regression of the data using the equation (GraphPad Software, Inc., San Diego, Calif.): v=v0/[1+(I/K′)] where v is the reaction rate, v0 is the uninhibited reaction rate, I is the inhibitor concentration and K′ is the apparent inhibition constant.
Compounds of the invention were tested in this assay and found to have pKi values at human NEP as follows.

Sequence of human neprilysin (EC 3.4.24.11; NEP) (P08473 52-750): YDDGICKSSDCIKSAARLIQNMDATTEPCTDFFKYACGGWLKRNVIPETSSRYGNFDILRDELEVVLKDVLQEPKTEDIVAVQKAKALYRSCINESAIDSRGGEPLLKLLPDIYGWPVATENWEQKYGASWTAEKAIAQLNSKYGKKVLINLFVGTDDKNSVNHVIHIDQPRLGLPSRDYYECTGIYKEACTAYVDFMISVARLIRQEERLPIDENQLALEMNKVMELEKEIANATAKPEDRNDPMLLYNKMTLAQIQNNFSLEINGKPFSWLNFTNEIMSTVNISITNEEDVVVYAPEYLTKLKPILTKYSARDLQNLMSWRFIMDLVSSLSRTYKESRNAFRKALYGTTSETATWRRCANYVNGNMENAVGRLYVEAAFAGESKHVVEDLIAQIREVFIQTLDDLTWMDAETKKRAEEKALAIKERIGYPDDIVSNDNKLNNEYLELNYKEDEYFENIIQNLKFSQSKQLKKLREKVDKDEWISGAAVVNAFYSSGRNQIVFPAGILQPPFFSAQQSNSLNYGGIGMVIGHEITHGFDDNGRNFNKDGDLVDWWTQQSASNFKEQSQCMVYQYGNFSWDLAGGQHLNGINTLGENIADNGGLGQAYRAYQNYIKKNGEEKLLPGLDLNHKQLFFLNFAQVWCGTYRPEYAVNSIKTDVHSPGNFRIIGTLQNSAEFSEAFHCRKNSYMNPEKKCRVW

Row | Compound | pKi | Ki [nM]
1 | O=C(N[C@H](Cc1ccc(-c2ccccc2)cc1)C[C@@H](O)C(=O)O)c1cn(O)nn1 [Example 10-3, (2R,4R)-5-Biphenyl-4-yl-2-hydroxy-4-[(1-hydroxy-1H-[1,2,3]triazole-4-carbonyl)-amino]-pentanoic acid] | ≥9.0 | 
2 | Cc1cc(C(=O)N[C@H](Cc2ccc(-c3ccccc3)cc2)CC(O)C(=O)O)n[nH]1 (stereo partly drawn) [Example 15-19, (R)-5-Biphenyl-4-yl-2-hydroxy-4-[(5-methyl-1H-pyrazole-3-carbonyl)amino]pentanoic acid] |  | 12.6 to 100
3 | O=C(N[C@H](Cc1ccc(-c2ccccc2)cc1)C[C@@H](O)C(=O)O)c1cc(-c2ccc(Cl)s2)n[nH]1 [Example 15-90, (2R,4R)-5-Biphenyl-4-yl-4-{[5-(5-chlorothiophen-2-yl)-2H-pyrazole-3-carbonyl]-amino}-2-hydroxy-pentanoic acid] | ≥9.0 | 
4 | O=C(N[C@H](Cc1ccc(-c2ccccc2)cc1)CC(O)C(=O)O)c1cc(-c2ccc(Cl)cc2)[nH]n1 (stereo partly drawn) [Example 15-40, (R)-5-Biphenyl-4-yl-4-{[5-(4-chlorophenyl)-1H-pyrazole-3-carbonyl]amino}-2-hydroxy-pentanoic acid] |  | 1.26 to 10
5 | COc1ccccc1C(=O)Nc1nc(C(=O)N[C@H](Cc2ccc(-c3ccccc3)cc2)C[C@@H](O)C(=O)O)cs1 [Example 12-25, (2R,4R)-5-Biphenyl-4-yl-2-hydroxy-4-{[2-(2-methoxy-benzoylamino)-thiazole-4-carbonyl]-amino}-pentanoic acid] |  | 12.6 to 100
6 | COc1ccccc1C(=O)Nc1cc(C(=O)N[C@H](Cc2ccc(-c3ccccc3)cc2)C[C@@H](O)C(=O)O)n[nH]1 [Example 15-32, (2R,4R)-5-Biphenyl-4-yl-2-hydroxy-4-{[5-(2-methoxy-benzoylamino)-1H-pyrazole-3-carbonyl]-amino}-pentanoic acid] |  | 1.26 to 10
7 | COc1ccccc1-c1cc(C(=O)N[C@H](Cc2ccc(-c3ccccc3)cc2)C[C@@H](O)C(=O)O)on1 [Example 12-13, (2R,4R)-5-Biphenyl-4-yl-2-hydroxy-4-{[3-(2-methoxy-phenyl)-isoxazole-5-carbonyl]-amino}-pentanoic acid] | ≥9.0 | 
8 | O=C(N[C@H](Cc1ccc(-c2ccccc2)cc1)CC(O)C(=O)O)c1cc(-c2ccccc2Cl)[nH]n1 (stereo partly drawn) [Example 15-24, (R)-5-Biphenyl-4-yl-4-{[5-(2-chlorophenyl)-1H-pyrazole-3-carbonyl]amino}-2-hydroxy-pentanoic acid] |  | 1.26 to 10
9 | CCCCC(=O)Nc1cc(C(=O)N[C@H](Cc2ccc(-c3ccccc3)cc2)CC(O)C(=O)O)[nH]n1 (stereo partly drawn) [Example 15-92, (R)-5-Biphenyl-4-yl-2-hydroxy-4-[(5-pentanoylamino-2H-pyrazole-3-carbonyl)-amino]-pentanoic acid] |  | 12.6 to 100
10 | CC(C)(c1ccc(-c2ccccc2)cc1)[C@H](C[C@@H](O)C(=O)O)NC(=O)c1cc(C(=O)O)n[nH]1 [Example 24, 5-[(S)-2-Biphenyl-4-yl-1-((R)-2-carboxy-2-hydroxy-ethyl)-2-methyl-propylcarbamoyl]-1H-pyrazole-3-carboxylic Acid] | ≥9.0 | 
11 | O=C(N[C@H](Cc1ccc(-c2ccccc2)cc1)C[C@@H](O)C(=O)O)c1cc(-c2ccccc2O)n(CC(O)CO)n1 (stereo partly drawn) [Example 15-30, (2R,4R)-5-Biphenyl-4-yl-4-{[1-(2,3-dihydroxy-propyl)-5-(2-hydroxy-phenyl)-1H-pyrazole-3-carbonyl]-amino}-2-hydroxy-pentanoic acid] | ≥9.0 | 
12 | O=C(N[C@H](Cc1ccc(-c2cccc(Cl)c2)cc1)C[C@@H](O)C(=O)O)c1nnc(C(F)(F)F)[nH]1 [Example 18-45, (2R,4R)-5-(3′-Chlorobiphenyl-4-yl)-2-hydroxy-4-[(5-trifluoromethyl-4H-[1,2,4]triazole-3-carbonyl)-amino]-pentanoic acid] | ≥9.0 | 
13 | O=C(N[C@H](Cc1ccc(-c2cc(Cl)ccc2F)cc1)C[C@@H](O)C(=O)O)c1ccc2nnn(O)c2c1 [Example 22, (2R,4R)-5-(5′-Chloro-2′-fluorobiphenyl-4-yl)-2-hydroxy-4-[(3-hydroxy-3H-benzotriazole-5-carbonyl)-amino]-pentanoic Acid] | ≥9.0 | 
14 | O=C(N[C@H](Cc1ccc(-c2ccccc2)cc1)C[C@@H](O)C(=O)O)c1cc(C(=O)N2CCCC2)n[nH]1 [Example 5-B, (2R,4R)-5-Biphenyl-4-yl-2-hydroxy-4-{[5-(pyrrolidine-1-carbonyl)-2H-pyrazole-3-carbonyl]-amino}pentanoic Acid] | ≥9.0 | 
15 | O=C(N[C@H](Cc1ccc(-c2ccccc2)cc1)C[C@@H](O)C(=O)O)c1cc2n(n1)COc1ccccc1-2 [Example 16-6, (2R,4R)-5-Biphenyl-4-yl-2-hydroxy-4-[(5-oxa-3,3a-diaza-cyclopenta[a]naphthalene-2-carbonyl)-amino]-pentanoic acid] |  | 1.26 to 10
16 | O=C(O)c1ccc(C(=O)N[C@H](Cc2ccc(-c3ccccc3)cc2)CC(O)C(=O)O)nn1 (stereo partly drawn) [Example 13-3, 6-((R)-1-Biphenyl-4-ylmethyl-3-carboxy-3-hydroxypropylcarbamoyl)-pyridazine-3-carboxylic acid] |  | 12.6 to 100
17 | O=C(N[C@H](Cc1ccc(-c2ccccc2)cc1Cl)C[C@@H](O)C(=O)O)c1c[nH]nn1 [Example 20-1, (2R,4R)-5-(3-Chlorobiphenyl-4-yl)-2-hydroxy-4-[(1H-[1,2,3]triazole-4-carbonyl)-amino]-pentanoic acid] | ≥9.0 | 
18 | O=C(N[C@H](Cc1ccc(-c2cccc(Cl)c2)cc1)C[C@@H](O)C(=O)O)c1nn(-c2ccccc2)c(=O)[nH]1 [Example 18-47, (2R,4R)-5-(3′-Chlorobiphenyl-4-yl)-2-hydroxy-4-[(5-oxo-1-phenyl-4,5-dihydro-1H-[1,2,4]triazole-3-carbonyl)-amino]-pentanoic acid] | ≥9.0 | 
19 | O=C(N[C@@H](Cc1ccc(-c2cc(O)cc(Cl)c2)cc1)C[C@H](O)C(=O)O)c1ccc2nnn(O)c2c1 [Example 23-8, (2S,4S)-5-(3′-Chloro-5′-hydroxy-biphenyl-4-yl)-2-hydroxy-4-[(3-hydroxy-3H-benzotriazole-5-carbonyl)-amino]-pentanoic acid] | ≥9.0 | 
20 | CC(C)(c1ccc(-c2ccccc2)cc1)[C@H](C[C@@H](O)C(=O)O)NC(=O)c1cn(O)nn1 [Example 25-2, (2R,4S)-5-Biphenyl-4-yl-2-hydroxy-4-[(1-hydroxy-1H-[1,2,3]triazole-4-carbonyl)-amino]-5-methyl-hexanoic acid] |  | 1.26 to 10
21 | O=C(N[C@H](Cc1ccc(-c2ccccc2)cc1)CC(O)C(=O)O)c1cn[nH]c1 (stereo partly drawn) [Example 15-113, (R)-5-Biphenyl-4-yl-2-hydroxy-4-[(1H-pyrazole-4-carbonyl)amino]pentanoic acid] |  | 12.6 to 100
22 | O=C(N[C@H](Cc1ccc(-c2ccccc2)cc1)C[C@@H](O)C(=O)O)c1cc(-c2cnccn2)n[nH]1 [Example 15-106, (2R,4R)-5-Biphenyl-4-yl-2-hydroxy-4-[(5-pyrazin-2-yl-2H-pyrazole-3-carbonyl)-amino]pentanoic acid] |  | 1.26 to 10
23 | O=C1CCC(C(=O)N[C@H](Cc2ccc(-c3ccccc3)cc2)CC(O)C(=O)O)=NN1 (stereo partly drawn) [Example 13-6, (R)-5-Biphenyl-4-yl-2-hydroxy-4-[(6-oxo-1,4,5,6-tetrahydro-pyridazine-3-carbonyl)-amino]-pentanoic acid] |  | 12.6 to 100
24 | O=C(N[C@H](Cc1ccc(-c2ccccc2)cc1)C[C@@H](O)C(=O)O)c1cc(CN2CCOCC2)on1 [Example 12-19, (2R,4R)-5-Biphenyl-4-yl-2-hydroxy-4-[(5-morpholin-4-ylmethyl-isoxazole-3-carbonyl)-amino]-pentanoic acid] |  | 12.6 to 100
25 | O=C(N[C@@H](Cc1ccc(-c2cc(Cl)ccc2Cl)cc1)C[C@H](O)C(=O)O)c1ccc2nnn(O)c2c1 [Example 23-4, (2S,4S)-5-(2′,5′-Dichlorobiphenyl-4-yl)-2-hydroxy-4-[(3-hydroxy-3H-benzotriazole-5-carbonyl)-amino]-pentanoic acid] | ≥9.0 | 
26 | O=C(N[C@H](Cc1ccc(-c2ccccc2)cc1)CC(O)C(=O)O)c1cc(C(=O)O)n(Cc2ccc(Cl)c(OC(F)(F)F)c2)n1 (stereo partly drawn) [Example 15-12, 5-((R)-1-Biphenyl-4-ylmethyl-3-carboxy-3-hydroxy-propylcarbamoyl)-2-(4-chloro-3-trifluoromethoxybenzyl)-2H-pyrazole-3-carboxylic acid] |  | 12.6 to 100
27 | Cc1ccc(-c2cc(C(=O)N[C@H](Cc3ccc(-c4ccccc4)cc3)C[C@@H](O)C(=O)O)[nH]n2)s1 [Example 15-89, (2R,4R)-5-Biphenyl-4-yl-2-hydroxy-4-{[5-(5-methylthiophen-2-yl)-2H-pyrazole-3-carbonyl]-amino}-pentanoic acid] | ≥9.0 | 

From patent US10759813B2, “Neprilysin inhibitors” (THERAVANCE BIOPHARMA R&D IP, LLC, priority 2010, dated 2020)
